# In article PMC7084598, “Design, Synthesis, and Biological Evaluation of Two Series of Novel A-Ring Fused Steroidal Pyrazines as Potential Anticancer Agents” (International Journal of Molecular Sciences, 2020):
# How the values were obtained:
# DU-145 = tested on: DU-145; set-up: method as in PMID 14695204, PMID 26042639; conditions: cited from earlier work
# MCF-7 = tested on: MCF-7; set-up: method as in PMID 14695204, PMID 26042639; conditions: cited from earlier work
# NCI-H460 = tested on: NCI-H460; set-up: method as in PMID 14695204, PMID 26042639; conditions: cited from earlier work
# MCF-7 (breast carcinoma) = test: CCK-8 antiproliferative assay, MCF-7; format: cell-based; conditions: Homo sapiens, MCF7, 48 h, CCK8, mean of three independent experiments, NA = no activity, read-out: Inhibitory Ratio (Mean% ± SD%) MCF-7
# Protocol: (§1) All the thirty-six target derivatives (5a–5f, 10a–10o, and 12a–12o) were screened for antiproliferative activities against three human cancer cell lines (MCF-7, PC-3, and HepG2) and cytotoxicity on a normal human cell (THLE-2) at the concentration of 20 μM by using the CCK8 assay.
# (§2) Thirty-six novel steroidal A-ring fused pyrazine hybrids were evaluated by Cell Counting Kit-8 (CCK-8) assays, to evaluate their in vitro antiproliferative activities on three human cancer cell lines and one normal cell line: MCF-7 (breast carcinoma), PC-3 (prostate carcinoma), HepG2 (liver hepatocellular carcinoma), and THLE-2 ([…]), with 5-fluorouracil as the positive control.
# (§3) Cells (3 × 10^3 cells per well) seeded into 96-well plates (Costar, Shanghai, China) were incubated with Ham’s F-12K containing various concentrations of steroidal pyrazines (5a–5f, 10a–10o, and 12a–12o) for 48 h at 37 °C and 5% COThen, 10 μL of CCK-8 reagent (Beyotime, Shanghai, China) dissolved in PBS (Phosphate buffered saline) was added per well, and continuously incubated at 37 °C for 1 h. Finally, the absorbance of samples taken from each well was measured on a microplate reader at 450 nm. The antiproliferative activities were expressed as inhibitory activity and IC50 values calculated using GraphPad Software 5.0 (GraphPad Software, San Diego, CA, USA), which were the mean values of three independent tests and are shown in Table 1 and Table 2, respectively. The formula used for cell inhibitory rates was (1 - sample absorption/vehicle absorption) × 100%.
# [1] = tested on: PC-3 (prostate carcinoma); test: CCK-8 antiproliferative assay, PC-3; format: cell-based, human
# Protocol: as §1, §2, §3
# [2] = tested on: HepG2 (liver hepatocellular carcinoma); test: CCK-8 antiproliferative assay, HepG2; format: cell-based; conditions: Homo sapiens, 48 h, CCK8, mean of three independent experiments, NA = no activity, read-out: Inhibitory Ratio (Mean% ± SD%) HepG2
# Protocol: as §1, §2, §3
# [3] = tested on: THLE-2 (normal human cells); test: CCK-8 cytotoxicity on normal cells, THLE-2; format: cell-based
# Protocol: as §1, §2, §3
# PC-3 cells [4] = test: Cell apoptosis assay, Annexin V-FITC/PI dual staining, flow cytometry; format: cell-based, human; conditions: for Percentage of Cell Apoptosis (%) Normal Living Cell: 48 h (Q1-LL); for Percentage of Cell Apoptosis (%) Early Apoptosis: 48 h (Q1-LR); for Percentage of Cell Apoptosis (%) Necrosis: 48 h (Q1-UL); for Percentage of Cell Apoptosis (%) Late Apoptosis: 48 h (Q1-UR); for apoptosis ratio (early and late apoptotic ratios): 48 h, blank control 5.77%
# Protocol: To clarify the effect of steroidal pyrazines on the induction of apoptosis in PC-3 cells, a flow cytometry assay with Annexin-V-FITC/PI double staining was implemented.
# The cell apoptosis was evaluated with Annexin V-FITC/PI dual staining (Beyotime, Shanghai, China), as previously described. PC-3 cells (1 × 10^6 cells per well) seeded into 6-well plates (Costar, Shanghai, China) were incubated with Ham’s F-12K containing various concentrations (0.2, 1.0, and 5.0 μM) of compound 12n for 48 h. The biological samples were analyzed using flow cytometry (CytoFLEX, CA, USA).
# PC-3 cells [5] = test: Cell cycle assay, PI single staining, flow cytometry; format: cell-based, human; conditions: for Percentage of Cell Cycles (%) G1 / Percentage of Cell Cycles (%) S / Percentage of Cell Cycles (%) G2/M: 48 h; for Percentage of Cell Cycles (%) G2/M: control 15.69%
# Protocol: To further clarify the effects of A-ring fused steroidal pyrazines on cell growth, the cell cycle distribution of PC-3 cells was investigated through treatment with compound 12n at concentration gradients for 48 h (Figure 5 and Table 5).
# The cell cycle was examined by PI single staining (Beyotime, Shanghai, China), as previously described. […] The samples were analyzed using flow cytometry for DNA content (CytoFLEX, California, United States).
# PC-3 cells [6] = test: Giemsa staining for morphological features of apoptosis; format: cell-based, human; conditions: 1.0 and 4.0 μM, 48 h
# Protocol: After being treated with 12n at different concentrations (1.0 and 4.0 μM), the cells were stained with Giemsa stain. […] Other morphological changes, such as the loss of volume and deformation of a regular appearance, were also found.
# Giemsa stain was used to assess the morphological changes of PC-3 cells, according to the standard Giemsa procedure established by the supplier (Solarbio, Beijng, China). Briefly, PC-3 cells were plated at 3 × 10^3 cells/well into a 96-well plates. PC-3 cells after treatment with 12n for 48 h were fixed with methanol (75%) for 10 min at room temperature. Then, the cells were stained with Giemsa (diluted with phosphate buffer), observed, and photographed under the microscope at 200 × (Olympus Corporation, Tokyo, Japan ).
# P338 = tested on: P338; set-up: method as in PMID 14695204, PMID 26042639; conditions: cited from earlier work
compound,measurement,setting,value
C[C@@H]1[C@]2(O[C@H]3C=C4[C@@H]5CC[C@H]6Cc7nc8c(nc7C[C@]6(C)[C@H]5C[C@@H](O)[C@]4(C)[C@]31O)C[C@@H]1CC[C@H]3C4=CC[C@@H]5[C@H](C)[C@@]6(OC[C@]45C(=O)C[C@@H]3[C@@]1(C)C8)OC(C)(C)C[C@H]6O)O[C@](C)(CO)C[C@H]2O [Cephalostatin 1],GI50,DU-145,0.11 nM
same,GI50,MCF-7,0.099 nM
same,GI50,NCI-H460,0.044 nM
CC(O)C1CCC2C3CC=C4C(C)(C)c5nc(C(=O)NCCc6ccccc6)cnc5CC4(C)C3CCC12C (stereo not shown) [Compound 12n],inhibition at 20 µM,MCF-7 (breast carcinoma),40.8 ± 1.72%
same,inhibition at 20 µM,"[1]; Homo sapiens, 48 h, 20 μM, 48 h, CCK8, mean of three independent experiments, NA = no activity, read-out: Inhibitory Ratio (Mean% ± SD%) PC-3",> 60%
same,IC50,"[1]; Homo sapiens, CCK-8, 48 h, triplicate",930 ± 20 nM
same,SI: Selectivity index = (IC50 of THLE-2)/(IC50 of PC-3),[1]; THLE-2 vs PC-3,28.71
same,inhibition at 20 µM,[2],55.4 ± 1%
same,inhibition at 20 µM,"[3]; 20 μM, 48 h, CCK8, NA = no activity, read-out: Inhibitory Ratio (Mean% ± SD%) THLE-2",19.3 ± 1.81%
same,IC50,"[3]; CCK-8, 48 h",26700 nM
same,Percentage of Cell Apoptosis (%) Normal Living Cell,"PC-3 cells [4]; PC-3, 0.2 μM",89.20%
same,Percentage of Cell Apoptosis (%) Early Apoptosis,"PC-3 cells [4]; PC-3, 0.2 μM",0.76%
same,Percentage of Cell Apoptosis (%) Necrosis,"PC-3 cells [4]; PC-3, 0.2 μM",2.15%
same,Percentage of Cell Apoptosis (%) Late Apoptosis,"PC-3 cells [4]; PC-3, 0.2 μM",7.90%
same,apoptosis ratio (early and late apoptotic ratios),"PC-3 cells [4]; PC-3, 0.2 μM",8.66%
same,Percentage of Cell Apoptosis (%) Normal Living Cell,"PC-3 cells [4]; PC-3, 1.0 μM",73.17%
same,Percentage of Cell Apoptosis (%) Early Apoptosis,"PC-3 cells [4]; PC-3, 1.0 μM",4.55%
same,Percentage of Cell Apoptosis (%) Necrosis,"PC-3 cells [4]; PC-3, 1.0 μM",3.21%
same,Percentage of Cell Apoptosis (%) Late Apoptosis,"PC-3 cells [4]; PC-3, 1.0 μM",19.07%
same,apoptosis ratio (early and late apoptotic ratios),"PC-3 cells [4]; PC-3, 1.0 μM",23.62%
same,Percentage of Cell Apoptosis (%) Normal Living Cell,"PC-3 cells [4]; PC-3, 5.0 μM",54.13%
same,Percentage of Cell Apoptosis (%) Early Apoptosis,"PC-3 cells [4]; PC-3, 5.0 μM",3.64%
same,Percentage of Cell Apoptosis (%) Necrosis,"PC-3 cells [4]; PC-3, 5.0 μM",6.30%
same,Percentage of Cell Apoptosis (%) Late Apoptosis,"PC-3 cells [4]; PC-3, 5.0 μM",35.93%
same,apoptosis ratio (early and late apoptotic ratios),"PC-3 cells [4]; PC-3, 5.0 μM",39.57%
same,Percentage of Cell Cycles (%) G1,"PC-3 cells [5]; PC-3, 0.2 μM",46.65%
same,Percentage of Cell Cycles (%) S,"PC-3 cells [5]; PC-3, 0.2 μM",37.26%
same,Percentage of Cell Cycles (%) G2/M,"PC-3 cells [5]; PC-3, 0.2 μM",16.09%
same,Percentage of Cell Cycles (%) G1,"PC-3 cells [5]; PC-3, 1.0 μM",23.03%
same,Percentage of Cell Cycles (%) S,"PC-3 cells [5]; PC-3, 1.0 μM",30.78%
same,Percentage of Cell Cycles (%) G2/M,"PC-3 cells [5]; PC-3, 1.0 μM",46.19%
same,percentage of cells in the G2/M phase,"PC-3 cells [5]; PC-3, 5.0 μM",44.27%
same,Percentage of Cell Cycles (%) G1,"PC-3 cells [5]; PC-3, 5.0 μM",55.73%
same,Percentage of Cell Cycles (%) S,"PC-3 cells [5]; PC-3, 5.0 μM",0.00%
same,Percentage of Cell Cycles (%) G2/M,"PC-3 cells [5]; PC-3, 5.0 μM",44.27%
same,Morphological changes of PC-3 cells (Giemsa stain),PC-3 cells [6],could cause the morphological change of PC-3 cells in a dose-dependent manner
Ritterazine B,ED50 (nM) for P338,P338,0.17 nM
